Columns and labels:
[1] = test system: patients with relapsing multiple sclerosis; assay: Phase 2b dose-finding study: number of new or enlarging T2 lesions by brain MRI; details: for Number of new/enlarging T2 lesions, mean (SD): Cohort 1 (all doses)
Method: New T1 Gd-enhancing hyperintense and new and enlarging T2 lesions are evaluated at each visit as per the SoA (Table 1), comparing lesion count to that from the previous MRI scan. Unless specified otherwise, the baseline brain MRI is used as the reference to assess all MRI-derived endpoints. The baseline MRI is the last MRI performed before the randomization visit. Standardized endpoint evaluation is assured by central review of brain MRI scans. Blinded central review is performed for all MRI-derived endpoints. Magnetic resonance imaging reviewers are blinded to treatment assignments and to other participant data.
For the number of new or enlarging T2 lesions, descriptive summary statistics over time (4, 8, 12, and 16 weeks) is provided for each of the 4 BTK inhibitor doses. Further, a similar MCP-Mod approach is explored if it is deemed reasonable to extrapolate the Week 4 data from Cohort 2 to the Week 12 placebo data.
For each secondary endpoint, a similar negative binomial model and the MCP-Mod procedure were used. As it is reasonable to assume a constant rate of lesion formation over 12 weeks under placebo treatment, the same approach as that utilized for the primary endpoint was used, i.e., using the Week 4 data in Cohort 2 as the Week 12 placebo data while accounting for within-participant correlation. Descriptive summary statistics over time were provided for each of the 4 BTK inhibitor dose groups.
Magnetic resonance imaging (MRI) scans were obtained at screening and every 4 weeks for 16 weeks.

[2] = test system: patients with relapsing multiple sclerosis; assay: Long-term safety extension: number of new T1 non-enhancing (hypointense) lesions (MRI); format: in vivo, human
Method: (§1) In the current open-label extension Part B, all patients receive 60 mg/day. MRI outcomes include numbers of new Gd-enhancing and new/enlarging T2 lesions, T2 lesion volume change from baseline, slowly evolving lesions (SEL), and paramagnetic rim lesions (PRL).
(§2) The Week 0 value is from the last MRI obtained in the dose-finding study if performed within 6 weeks prior to Day 1 of the long-term safety study For some patients the Week 0 value began after a gap period ranging from 0-21 weeks. For patients where the gap period was 0 weeks, the Week 0 value began immediately after the completion of Week 16 of the dose-finding study. For patients where the gap period was greater than 6 weeks a new MRI was obtained prior to Day 1 of the long-term safety study.
(§3) If from Week 16 of the dose-finding study (Cohort 2), it is also included in Week 12. If from Week 16 of the dose-finding study (Cohort 1), it is after 4 weeks placebo run out.

CD19+ B-cell = assay: Phase 2b trial: plasma CD19+ B-cell count in the placebo run-out cohort; format: in vivo, human; details: Cohort 1
Method: OUTCOMES: The outcomes evaluated in this example include measuring the incidence of relapse during 4-week placebo run-in and run-out, the number of new Gd-enhancing T1 lesions detected with magnetic resonance imaging (MRI) at Weeks 4, 8 and 16, the number of new or enlarging T2 lesions measured at Weeks 4, 8 and 16, and the plasma CD19+B-cell count measured in the placebo run-out cohort at baseline, 1 hour after the first dose, then at Week 12 and Week 16 (FIG. 3).

[3] = test system: patients with relapsing multiple sclerosis; assay: Long-term safety extension: T2 lesion volume change from baseline (MRI); format: in vivo, human; details: for Volume of new or enlarging T2 lesions, Mean (SD): in cm³
Method: as §1, §2, §3

[4] = 5 mg daily, after 12 weeks of treatment
[5] = 15 mg daily, after 12 weeks of treatment
[6] = 30 mg daily, after 12 weeks of treatment
[7] = 60 mg daily, after 12 weeks of treatment

C=CC(=O)N1CCC[C@@H](n2c(=O)n(-c3ccc(Oc4ccccc4)cc3)c3c(N)nccc32)C1 [the BTK inhibitor, (R)-1-(1-acryloylpiperidin-3-yl)-4-amino-3-(4-phenoxyphenyl)-1H-imidazo[4,5-c]pyridin-2(3H)-one]
New or enlarging T2 lesion count, Mean [1, 4]: 1.90
New or enlarging T2 lesion count, Median [1, 4]: 0.00
Count of new and enlarging T2 lesions, observed mean (SD) ([1]; 5 mg once daily, end of 12 weeks of treatment): 1.90 (3.97)
New or enlarging T2 lesion count, Mean [1, 5]: 1.32
New or enlarging T2 lesion count, Median [1, 5]: 1.00
Count of new and enlarging T2 lesions, observed mean (SD) ([1]; 15 mg once daily, end of 12 weeks of treatment): 1.32 (1.83)
New or enlarging T2 lesion count, Mean [1, 6]: 1.30
New or enlarging T2 lesion count, Median [1, 6]: 0.00
Count of new and enlarging T2 lesions, observed mean (SD) ([1]; 30 mg once daily, end of 12 weeks of treatment): 1.30 (4.90)
New or enlarging T2 lesion count, Mean [1, 7]: 0.23
New or enlarging T2 lesion count, Median [1, 7]: 0.00
Patients with >=3 new or enlarging T2 lesions [1, 7]: 0 n
Count of new and enlarging T2 lesions, observed mean (SD) ([1]; 60 mg once daily, end of 12 weeks of treatment): 0.23 (0.62)
Adjusted relative reduction in count of new and enlarging T2 lesions relative to placebo ([1]; 60 mg, 12 weeks, 95% CI [68.39%, 96.41%], nominal p=0.0001): 89.34%
Participants with no new and enlarging T2 lesions ([1]; 60 mg, end of 12 weeks of treatment, 27 of 31 with evaluable MRI): 87.1%
Number of new/enlarging T2 lesions, mean (SD) ([1]; Week 12): 0.58 (1.27)
Number of new/enlarging T2 lesions, mean (SD) ([1]; after 4 weeks of placebo run-out): 0.95 (2.72)
Number of new T1 non-enhancing (hypointense) lesions, Mean (SD) ([2]; 5/60 mg, Week 0): 0.23 (0.43)
Number of new T1 non-enhancing (hypointense) lesions, Median ([2]; 5/60 mg, Week 0): 0.00
Number of new T1 non-enhancing (hypointense) lesions, Mean (SD) ([2]; 5/60 mg, Week 12): 0.19 (0.60)
Number of new T1 non-enhancing (hypointense) lesions, Median ([2]; 5/60 mg, Week 12): 0.00
Number of new T1 non-enhancing (hypointense) lesions, Mean (SD) ([2]; 15/60 mg, Week 0): 0.61 (1.45)
Number of new T1 non-enhancing (hypointense) lesions, Median ([2]; 15/60 mg, Week 0): 0.00
Number of new T1 non-enhancing (hypointense) lesions, Mean (SD) ([2]; 15/60 mg, Week 12): 0.26 (0.73)
Number of new T1 non-enhancing (hypointense) lesions, Median ([2]; 15/60 mg, Week 12): 0.00
Number of new T1 non-enhancing (hypointense) lesions, Mean (SD) ([2]; 30/60 mg, Week 0): 0.31 (1.09)
Number of new T1 non-enhancing (hypointense) lesions, Median ([2]; 30/60 mg, Week 0): 0.00
Number of new T1 non-enhancing (hypointense) lesions, Mean (SD) ([2]; 30/60 mg, Week 12): 0.09 (0.39)
Number of new T1 non-enhancing (hypointense) lesions, Median ([2]; 30/60 mg, Week 12): 0.00
Number of new T1 non-enhancing (hypointense) lesions, Mean (SD) ([2]; 60/60 mg, Week 0): 0.06 (0.36)
Number of new T1 non-enhancing (hypointense) lesions, Median ([2]; 60/60 mg, Week 0): 0.00
Number of new T1 non-enhancing (hypointense) lesions, Mean (SD) ([2]; 60/60 mg, Week 12): 0.03 (0.18)
Number of new T1 non-enhancing (hypointense) lesions, Median ([2]; 60/60 mg, Week 12): 0.00
Number of new T1 non-enhancing (hypointense) lesions, Mean (SD) ([2]; All (N = 125), Week 0): 0.30 (0.96)
Number of new T1 non-enhancing (hypointense) lesions, Median ([2]; All (N = 125), Week 0): 0.00
Number of new T1 non-enhancing (hypointense) lesions, Mean (SD) ([2]; All (N = 125), Week 12): 0.14 (0.52)
Number of new T1 non-enhancing (hypointense) lesions, Median ([2]; All (N = 125), Week 12): 0.00
Number of B cells in the peripheral circulation after placebo run-out (CD19+ B-cell; after the 4-week placebo run-out period): returned towards baseline level
Number of B cells in the peripheral circulation after the first dose (CD19+ B-cell; within 1 hour after the first dose): increased
Volume of new or enlarging T2 lesions, Median ([3]; 5/60 mg, Week 0): 0.09 cm³
Volume of new or enlarging T2 lesions, Mean (SD) ([3]; 5/60 mg, Week 0): 1.28 (2.57)
Volume of new or enlarging T2 lesions, Median ([3]; 5/60 mg, Week 12): 0.2 cm³
Volume of new or enlarging T2 lesions, Mean (SD) ([3]; 5/60 mg, Week 12): 1.05 (1.70)
Volume of new or enlarging T2 lesions, Median ([3]; 15/60 mg, Week 0): 0.08 cm³
Volume of new or enlarging T2 lesions, Mean (SD) ([3]; 15/60 mg, Week 0): 0.72 (1.86)
Volume of new or enlarging T2 lesions, Median ([3]; 15/60 mg, Week 12): 0.2 cm³
Volume of new or enlarging T2 lesions, Mean (SD) ([3]; 15/60 mg, Week 12): 1.09 (1.61)
Volume of new or enlarging T2 lesions, Median ([3]; 30/60 mg, Week 0): 0 cm³
Volume of new or enlarging T2 lesions, Mean (SD) ([3]; 30/60 mg, Week 0): 0.48 (1.59)
Volume of new or enlarging T2 lesions, Median ([3]; 30/60 mg, Week 12): 0.04 cm³
Volume of new or enlarging T2 lesions, Mean (SD) ([3]; 30/60 mg, Week 12): 0.69 (1.30)
T2 lesion volume change, W96 vs baseline, mean±SD ([3]; 60/60 mg arm): 0.38±2.11 cm3
Volume of new or enlarging T2 lesions, Median ([3]; 60/60 mg, Week 0): 0 cm³
Volume of new or enlarging T2 lesions, Mean (SD) ([3]; 60/60 mg, Week 0): 0.18 (0.38)
Volume of new or enlarging T2 lesions, Median ([3]; 60/60 mg, Week 12): 0.06 cm³
Volume of new or enlarging T2 lesions, Mean (SD) ([3]; 60/60 mg, Week 12): 0.26 (0.48)
Volume of new or enlarging T2 lesions, Median ([3]; All (N = 125), Week 0): 0 cm³
Volume of new or enlarging T2 lesions, Mean (SD) ([3]; All (N = 125), Week 0): 0.67 (1.81)
Volume of new or enlarging T2 lesions, Median ([3]; All (N = 125), Week 12): 0.12 cm³
Volume of new or enlarging T2 lesions, Mean (SD) ([3]; All (N = 125), Week 12): 0.80 (1.39)

— US20260272907A1, “Therapeutic Tyrosine Kinase Inhibitors for Multiple Sclerosis” (Principia Biopharma Inc., priority 2022, published 2026)
